Reference: patent US20250163104A1, “MACROCYCLIC IMMUNOMODULATORS” (priority 2021, published 2025)
Where a SMILES comes first, the peptide text is derived from it. Bridges are numbered along the chain shown (N, C = ends). [ ]: non-standard residue; d: D form. The star is where a group is joined. ξ: configuration not given here. Bip(3'-COOH) = N[C@@H](Cc1ccc(-c2cccc(C(=O)O)c2)cc1)C(=O)O; Bip = N[C@@H](Cc1ccc(-c2ccccc2)cc1)C(=O)O; Phe(4-CN) = N#Cc1ccc(C[C@H](N)C(=O)O)cc1; Phe(2-F) = N[C@@H](Cc1ccccc1F)C(=O)O; 4Pal = N[C@@H](Cc1ccncc1)C(=O)O; 2Thi = N[C@@H](Cc1cccs1)C(=O)O; Cha = N[C@@H](CC1CCCCC1)C(=O)O; Ile(3ξ) = CCC(C)[C@H](N)C(=O)O; Carboxymethyl = O=C(O)C*; Orn = NCCC[C@H](N)C(=O)O; Dab = NCC[C@H](N)C(=O)O; Dap = NC[C@H](N)C(=O)O

Each compound was assayed against T1, human PD-1 / PD-L1-Ig binding on Jurkat cell line over-expressing human PD-1 (Jurkat-PD-1) (Homo sapiens, UniProt Q15116) (assay: Jurkat-PD-1 Cell Binding High-Content Screening Assay (CBA)). Details: Jurkat-PD-1 cells, PE-labeled PD-L1-Ig 20 nM final; read-out: Jurkat HPD1_PDL1 IC50.
T1 construct: expressed in transfected cells; host or cells: Jurkat
Assay type: cell-based
How it was run: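 Compounds were preincubated with Jurkat-hPD-1 cells in DMEM plus 10% fetal calf serum for 2 h at 37° C. Phycoerythrin-labeled PD-L1-Ig (20 nM final) was then added for 1 hour. Cells were fixed in 4% paraformaldehyde with Hoechst 33342, and bound fluorescence was quantified by high-content imaging.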

T1 sequence (Q15116 25-288): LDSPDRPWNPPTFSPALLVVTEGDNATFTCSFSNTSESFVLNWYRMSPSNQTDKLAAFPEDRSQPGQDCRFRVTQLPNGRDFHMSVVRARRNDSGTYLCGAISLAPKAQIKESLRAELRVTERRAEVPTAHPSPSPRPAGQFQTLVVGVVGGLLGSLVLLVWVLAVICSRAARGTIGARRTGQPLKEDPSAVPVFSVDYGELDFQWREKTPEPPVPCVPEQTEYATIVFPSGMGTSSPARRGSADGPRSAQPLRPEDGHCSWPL

IC50	SMILES
18.6 nM	CC(C)C[C@H]1NC(=O)[C@H](CCCN)NC(=O)[C@H](CCC(=O)O)NC(=O)[C@H](Cc2ccc(-c3ccccc3)cc2)NC(=O)[C@H](C(C)C)NC(=O)[C@H](Cc2cccs2)NC(=O)[C@H](CC(=O)O)NC(=O)[C@H](Cc2cccs2)NC(=O)[C@H](CN)NC(=O)CSC[C@@H](C(=O)N[C@@H](C)C(N)=O)NC(=O)[C@H]([C@@H](C)O)NC(=O)[C@H](C(C)C)NC(=O)[C@H](CC2CCCCC2)NC(=O)[C@H](CCN)NC1=O [Compound 2205] ({CH2CO}-[Dap][2Thi]D[2Thi]V[Bip]E[Orn][dL][Dab][Cha]VTCA-NH2; thioether N-14)
14.6 nM	CC(C)C[C@H]1NC(=O)[C@H](CCCN)NC(=O)[C@H](CCC(=O)O)NC(=O)[C@H](Cc2ccc(-c3ccccc3)cc2)NC(=O)[C@H](C(C)C)NC(=O)[C@H](Cc2cccs2)NC(=O)[C@H](CC(=O)O)NC(=O)[C@H](Cc2cccs2)NC(=O)[C@H](Cc2ccc(OCC(=O)O)cc2)NC(=O)CSC[C@@H](C(=O)N[C@@H](C)C(N)=O)NC(=O)[C@H]([C@@H](C)O)NC(=O)[C@H](C(C)C)NC(=O)[C@H](CC2CCCCC2)NC(=O)[C@H](CCN)NC1=O [Compound 2206] ({CH2CO}-Y(Carboxymethyl)[2Thi]D[2Thi]V[Bip]E[Orn][dL][Dab][Cha]VTCA-NH2; thioether N-14)
34.4 nM	CC(C)C[C@H]1NC(=O)[C@H](CCCN)NC(=O)[C@H](CCC(=O)O)NC(=O)[C@H](Cc2ccc(-c3ccccc3)cc2)NC(=O)[C@H](C(C)C)NC(=O)[C@H](Cc2ccccc2F)NC(=O)[C@H](CC(=O)O)NC(=O)[C@H](Cc2ccncc2)NC(=O)[C@H](CC(N)=O)NC(=O)CSC[C@@H](C(=O)N[C@@H](C)C(N)=O)NC(=O)[C@H]([C@@H](C)O)NC(=O)[C@H](C(C)C)NC(=O)[C@H](CC2CCCCC2)NC(=O)[C@H](CCN)NC1=O [Compound 2207] ({CH2CO}-N[4Pal]D[Phe(2-F)]V[Bip]E[Orn][dL][Dab][Cha]VTCA-NH2; thioether N-14)
30.6 nM	CC(C)C[C@H]1NC(=O)[C@H](CCCN)NC(=O)[C@H](CCC(=O)O)NC(=O)[C@H](Cc2ccc(-c3ccccc3)cc2)NC(=O)[C@H](C(C)C)NC(=O)[C@H](Cc2ccccc2F)NC(=O)[C@H](CC(=O)O)NC(=O)[C@H](Cc2ccncc2)NC(=O)[C@H](Cc2ccccc2)NC(=O)CSC[C@@H](C(=O)N[C@@H](C)C(N)=O)NC(=O)[C@H]([C@@H](C)O)NC(=O)[C@H](C(C)C)NC(=O)[C@H](CC2CCCCC2)NC(=O)[C@H](CCN)NC1=O [Compound 2208] ({CH2CO}-F[4Pal]D[Phe(2-F)]V[Bip]E[Orn][dL][Dab][Cha]VTCA-NH2; thioether N-14)
29.7 nM	CC(C)C[C@H]1NC(=O)[C@H](CCCN)NC(=O)[C@H](CCC(=O)O)NC(=O)[C@H](Cc2ccc(-c3ccccc3)cc2)NC(=O)[C@H](C(C)C)NC(=O)[C@H](Cc2ccccc2F)NC(=O)[C@H](CC(=O)O)NC(=O)[C@H](Cc2ccncc2)NC(=O)[C@H](CN)NC(=O)CSC[C@@H](C(=O)N[C@@H](C)C(N)=O)NC(=O)[C@H]([C@@H](C)O)NC(=O)[C@H](C(C)C)NC(=O)[C@H](CC2CCCCC2)NC(=O)[C@H](CCN)NC1=O [Compound 2209] ({CH2CO}-[Dap][4Pal]D[Phe(2-F)]V[Bip]E[Orn][dL][Dab][Cha]VTCA-NH2; thioether N-14)
25.1 nM	CC(C)C[C@H]1NC(=O)[C@H](CCCN)NC(=O)[C@H](CCC(=O)O)NC(=O)[C@H](Cc2ccc(-c3ccccc3)cc2)NC(=O)[C@H](C(C)C)NC(=O)[C@H](Cc2ccccc2F)NC(=O)[C@H](CC(=O)O)NC(=O)[C@H](Cc2ccncc2)NC(=O)[C@H](Cc2ccc(OCC(=O)O)cc2)NC(=O)CSC[C@@H](C(=O)N[C@@H](C)C(N)=O)NC(=O)[C@H]([C@@H](C)O)NC(=O)[C@H](C(C)C)NC(=O)[C@H](CC2CCCCC2)NC(=O)[C@H](CCN)NC1=O [Compound 2210] ({CH2CO}-Y(Carboxymethyl)[4Pal]D[Phe(2-F)]V[Bip]E[Orn][dL][Dab][Cha]VTCA-NH2; thioether N-14)
20.3 nM	CC(C)C[C@H]1NC(=O)[C@H](CCCN)NC(=O)[C@H](CCC(=O)O)NC(=O)[C@H](Cc2ccc(-c3ccccc3)cc2)NC(=O)[C@H](C(C)C)NC(=O)[C@H](Cc2ccccc2F)NC(=O)[C@H](CC(=O)O)NC(=O)[C@H](Cc2ccncc2)NC(=O)[C@H](Cc2ccncc2)NC(=O)CSC[C@@H](C(=O)N[C@@H](C)C(N)=O)NC(=O)[C@H]([C@@H](C)O)NC(=O)[C@H](C(C)C)NC(=O)[C@H](CC2CCCCC2)NC(=O)[C@H](CCN)NC1=O [Compound 2211] ({CH2CO}-[4Pal][4Pal]D[Phe(2-F)]V[Bip]E[Orn][dL][Dab][Cha]VTCA-NH2; thioether N-14)
37.6 nM	CC(C)C[C@H]1NC(=O)[C@H](CCCN)NC(=O)[C@H](CCC(=O)O)NC(=O)[C@H](Cc2ccc(-c3ccccc3)cc2)NC(=O)[C@H](C(C)C)NC(=O)[C@H](Cc2ccccc2F)NC(=O)[C@H](CC(=O)O)NC(=O)[C@H](Cc2ccc(C#N)cc2)NC(=O)[C@H](CC(N)=O)NC(=O)CSC[C@@H](C(=O)N[C@@H](C)C(N)=O)NC(=O)[C@H]([C@@H](C)O)NC(=O)[C@H](C(C)C)NC(=O)[C@H](CC2CCCCC2)NC(=O)[C@H](CCN)NC1=O [Compound 2212] ({CH2CO}-N[Phe(4-CN)]D[Phe(2-F)]V[Bip]E[Orn][dL][Dab][Cha]VTCA-NH2; thioether N-14)
59.2 nM	CC(C)C[C@H]1NC(=O)[C@H](CCCN)NC(=O)[C@H](CCC(=O)O)NC(=O)[C@H](Cc2ccc(-c3ccccc3)cc2)NC(=O)[C@H](C(C)C)NC(=O)[C@H](Cc2ccccc2F)NC(=O)[C@H](CC(=O)O)NC(=O)[C@H](Cc2ccc(C#N)cc2)NC(=O)[C@H](Cc2ccccc2)NC(=O)CSC[C@@H](C(=O)N[C@@H](C)C(N)=O)NC(=O)[C@H]([C@@H](C)O)NC(=O)[C@H](C(C)C)NC(=O)[C@H](CC2CCCCC2)NC(=O)[C@H](CCN)NC1=O [Compound 2213] ({CH2CO}-F[Phe(4-CN)]D[Phe(2-F)]V[Bip]E[Orn][dL][Dab][Cha]VTCA-NH2; thioether N-14)
15.4 nM	CC(C)C[C@H]1NC(=O)[C@H](CCCN)NC(=O)[C@H](CCC(=O)O)NC(=O)[C@H](Cc2ccc(-c3ccccc3)cc2)NC(=O)[C@H](C(C)C)NC(=O)[C@H](Cc2ccccc2F)NC(=O)[C@H](CC(=O)O)NC(=O)[C@H](Cc2ccc(C#N)cc2)NC(=O)[C@H](CN)NC(=O)CSC[C@@H](C(=O)N[C@@H](C)C(N)=O)NC(=O)[C@H]([C@@H](C)O)NC(=O)[C@H](C(C)C)NC(=O)[C@H](CC2CCCCC2)NC(=O)[C@H](CCN)NC1=O [Compound 2214]
30.4 nM	CC(C)C[C@H]1NC(=O)[C@H](CCCN)NC(=O)[C@H](CCC(=O)O)NC(=O)[C@H](Cc2ccc(-c3ccccc3)cc2)NC(=O)[C@H](C(C)C)NC(=O)[C@H](Cc2ccccc2F)NC(=O)[C@H](CC(=O)O)NC(=O)[C@H](Cc2ccc(C#N)cc2)NC(=O)[C@H](Cc2ccc(OCC(=O)O)cc2)NC(=O)CSC[C@@H](C(=O)N[C@@H](C)C(N)=O)NC(=O)[C@H]([C@@H](C)O)NC(=O)[C@H](C(C)C)NC(=O)[C@H](CC2CCCCC2)NC(=O)[C@H](CCN)NC1=O [Compound 2215]
19.3 nM	CC(C)C[C@H]1NC(=O)[C@H](CCCN)NC(=O)[C@H](CCC(=O)O)NC(=O)[C@H](Cc2ccc(-c3ccccc3)cc2)NC(=O)[C@H](C(C)C)NC(=O)[C@H](Cc2ccccc2F)NC(=O)[C@H](CC(=O)O)NC(=O)[C@H](Cc2ccc(C#N)cc2)NC(=O)[C@H](Cc2ccncc2)NC(=O)CSC[C@@H](C(=O)N[C@@H](C)C(N)=O)NC(=O)[C@H]([C@@H](C)O)NC(=O)[C@H](C(C)C)NC(=O)[C@H](CC2CCCCC2)NC(=O)[C@H](CCN)NC1=O [Compound 2216]
16.8 nM	CCC(C)[C@@H]1NC(=O)[C@H](Cc2ccc(-c3ccccc3)cc2)NC(=O)[C@H](C(C)C)NC(=O)[C@H](Cc2c[nH]c3ccccc23)NC(=O)[C@H](CC(=O)O)NC(=O)[C@H](Cc2ccc(-c3cccc(C(=O)O)c3)cc2)NC(=O)[C@H](CC(N)=O)NC(=O)CSC[C@@H](C(=O)N[C@@H](C)C(N)=O)NC(=O)[C@H]([C@@H](C)O)NC(=O)[C@H](C(C)C)NC(=O)[C@H](CC2CCCCC2)NC(=O)[C@H](CCN)NC(=O)[C@@H](CC(C)C)NC(=O)[C@H](CCCN)NC1=O (stereo partly drawn) [Compound 2217] ({CH2CO}-N[Bip(3'-COOH)]DWV[Bip][Ile(3ξ)][Orn][dL][Dab][Cha]VTCA-NH2; thioether N-14)
50.1 nM	CCC(C)[C@@H]1NC(=O)[C@H](Cc2ccc(-c3ccccc3)cc2)NC(=O)[C@H](C(C)C)NC(=O)[C@H](Cc2c[nH]c3ccccc23)NC(=O)[C@H](CC(=O)O)NC(=O)[C@H](Cc2ccc(-c3cccc(C(=O)O)c3)cc2)NC(=O)[C@H](Cc2ccccc2)NC(=O)CSC[C@@H](C(=O)N[C@@H](C)C(N)=O)NC(=O)[C@H]([C@@H](C)O)NC(=O)[C@H](C(C)C)NC(=O)[C@H](CC2CCCCC2)NC(=O)[C@H](CCN)NC(=O)[C@@H](CC(C)C)NC(=O)[C@H](CCCN)NC1=O (stereo partly drawn) [Compound 2218] ({CH2CO}-F[Bip(3'-COOH)]DWV[Bip][Ile(3ξ)][Orn][dL][Dab][Cha]VTCA-NH2; thioether N-14)
13.4 nM	CCC(C)[C@@H]1NC(=O)[C@H](Cc2ccc(-c3ccccc3)cc2)NC(=O)[C@H](C(C)C)NC(=O)[C@H](Cc2c[nH]c3ccccc23)NC(=O)[C@H](CC(=O)O)NC(=O)[C@H](Cc2ccc(-c3cccc(C(=O)O)c3)cc2)NC(=O)[C@H](CN)NC(=O)CSC[C@@H](C(=O)N[C@@H](C)C(N)=O)NC(=O)[C@H]([C@@H](C)O)NC(=O)[C@H](C(C)C)NC(=O)[C@H](CC2CCCCC2)NC(=O)[C@H](CCN)NC(=O)[C@@H](CC(C)C)NC(=O)[C@H](CCCN)NC1=O (stereo partly drawn) [Compound 2219]
